The results in this text go back to patent publication US20230122991A1, “GROWTH FACTOR FORMULATION FOR CONDITION ASSOCIATED WITH OTIC EVENT” (OTONOMY, INC., priority 2020, published 2023).

Assay [1] has as its system Spiral ganglion neurons (SGNs). The assay can be described thus: Survival of spiral ganglion neurons (Example C). The class given is cell-based, rat. Conditions: 1 μM; compared to a vehicle-only control, 0.01% DMSO; FIG. 6C. Here is the method:
Spiral ganglion neurons (SGNs) were harvested from P1-P3 rates, dissociated, and cultured in 96-well plates. The SGNs were treated with neurotrophins and/or antibodies at various concentrations. After about 24 hours, media was exchanged to serum-free media and the neurotrophins and/or antibodies were replenished. Cells were cultured for an additional 48-72 hours before being fixed using 4% paraformaldehyde (PFA) and stained using 4′,6-diamidino-2-phenylindole (DAPI). […] Surviving neurons were identified as cells with intact soma and at least one neurite.

The subject of another assay is SGNs. As to the kind of experiment: SGN complexity, dissociated SGNs (Example D). The class given is cell-based, rat. Conditions: differences upon treatment, FIG. 7D. The text has this:
SGNs were immunostained, imaged, and batch analyzed with PerkinElmer Harmony 4.6 software. Changes in the complexities of SGNs upon treatment with various agents were examined. […] All of the images in a single well were stitched together and analyzed. SGN somas are shown in the upper right panel and SGN neurites are shown in the lower left panel. As shown in the lower right panel, each neurite tree is assigned to a single cell for analysis. Depending on the stitching, occasionally neurites will not meet the criteria due to gaps that exceed a user-defined threshold.

`OCCN(CCO)c1ccc(C(c2ccc(Cl)cc2)c2ccc(N(CCO)CCO)cc2)cc1` [LM22b10]: the “Survival of SGNs” value in assay [1] is given as “not improved”.

B1: neurotrophin-3 (protein, UniProt P20783 139-257, looked up)
Neurotrophin-3: YAEHKSHRGEYSVCDSESLWVTDKSSAIDIRGHQVTVLGEIKTGNSPVKQYFYETRCKEARPVKNGCRGIDDKHWNSQCKTSQTYVRALTSENNKLVGWRWIRIDTSCVCALSRKIGRT
modifications: Neurotrophin-3
In the case of B1, the “total neurite length, total number of extremities, segments, and nodes per cell” value in the assay with SGNs was “not statistically significant”.
